Reference: article PMC10720437, “Non-therapeutic plasma levels in individuals utilizing curcumin supplements in daily life” (Frontiers in Nutrition, 2023)
Several values for one entry are separate records, joined by “and”; a condition that tells them apart may be missing. Equal values may be shown once. Values belong to the compound of their own block, whether it stands above or below them.

Assays:
[1] = Plasma levels of curcumin, metabolites and piperine by HPLC-MS/MS in participants using their own curcumin formulations; type: in vivo, human
Protocol: This study is an observational, open-label study investigating the plasma concentration of curcumin as used in daily life. Each participant was instructed to bring their own curcumin formulation on the day of visit. Participants were asked not to take their curcumin formulation in the morning on the day of visit. Blood was taken just before intake of the curcumin supplement (trough concentration) and 1.5 h after intake (expected peak concentration). Any food or beverage intake between these time points was registered while participants were not allowed to take any additional curcumin in between these two time points.
Blood was collected in heparinized tubes and protected against light by wrapping in aluminum foil directly after sampling. All samples were centrifuged (Rotina 380R from Hettich) for 10 min at 2754 RCF and 20°C and the obtained plasma was immediately stored, protected from light, at –80°C until analysis.
To determine the active plasma concentrations of curcumin, demethoxycurcumin, bisdemethoxycurcumin, and tetrahydrocurcumin it is important to highlight the difference between conjugated and unconjugated forms of these different compounds. A way to show this difference is to pretreat each sample with and without β-glucoronidase. In short, we used β-glucoronidase from Sigma-Aldrich (St. Louis, MO, USA), which contained ≥300,000 U/g β-glucoronidase and ≥10,000 U/g sulfatase, which hydrolyzes the hydrophilic glucuronic and sulfate acid group from conjugated curcumin (Figure 1) ([19]). The optimal pH for β-glucoronidase activity is 5.0 ([20]). Although our final mixture of sample plus β-glucoronidase solution has a slightly higher pH, we confirmed that after 1 h incubation at 37°C and 850 repetition per minute (rpm), a plateau was reached. No further conversion of conjugated curcumin into deconjugated curcumin occurred, indicating a complete reaction. Therefore, adding β-glucoronidase/sulfatase mixture results in an increase of unconjugated curcumin, demethoxycurcumin, bisdemethoxycurcumin, and tetrahydrocurcumin by displaying the sum of ‘previous’ conjugated and unconjugated curcuminoids and tetrahydrocurcumin.
Plasma samples were analyzed by our validated HPLC-MS/MS method ([21]). In short, on the day of analysis, samples were thawed and pretreated with and without β-glucoronidase. The samples treated with β-glucoronidase were incubated with 20 U/μL β-glucuronidase at 37°C and 850 revolutions per minute (RPM) for 1 h. Liquid–liquid extraction with Tert Butyl Methyl Ether (TBME) as organic phase was used to extract the compounds from the plasma. Curcumin, demethoxycurcumin, bisdemethoxycurcumin, tetrahydrocurcumin and piperine were quantified in a single analytical run. The HPLC-MS/MS system consisted of an Ultimate 3000 autosampler and pump, both of Dionex, connected to a degasser from LC Packings. The autosampler, with a 100 μL sample loop, was coupled to a Sciex API4000 mass spectrometer. After injection of 50 μL sample, separation of the analytes was performed with an Agilent column 2.1 × 100 mm packed with material of Zorbax Extend 3.5 μm C-18. The flowrate was […] and the dual gradient mobile phase consisted of A: ultra-purified H2O with 0.1% formic acid and B: MeOH 100%. The applied gradient profile started at 50:50 A:B and increased linear to 95% B in 3.0 min. During 6 min a 5:95 A:B level is continued, after which it returned in 0.2 min to 50:50. Afterwards the system was equilibrated during 6 min at the starting level. Throughout the liquid–liquid extraction and HPLC-MS/MS the potential influence of light was minimized by working in an dark environment with aluminum foil as much as possible. Each analytical run included a set of freshly prepared calibration samples containing all compounds in the validated range of 2 nM to 400 nM.

CYP3A = system: CYP3A; set-up: method as in PMID 18480186; conditions: cited from earlier work
[2] = set-up: method as in PMID 9278892; conditions: human blood incubated for 8 h at 37°C; cited from earlier work
[3] = system: mouse model for pancreatic cancer; set-up: method as in PMID 19528445; conditions: cited from earlier work
[4] = set-up: method as in PMID 9619120; conditions: addition of 20 mg/kg piperine; rats; cited from earlier work
[5] = set-up: method as in PMID 16545122; conditions: oral dosages of up to 12 gram; cited from earlier work
[6] = cited from earlier work
[7] = human, in vivo, Plasma level in individual participants
[8] = human, in vivo, Mean concentration
[9] = with addition of β-glucuronidase, 0 h (trough), human plasma
[10] = with addition of β-glucuronidase, 1.5 h (expected peak), human plasma
[11] = without addition of β-glucuronidase, 0 h (trough), human plasma

Compound: O=C(/C=C/c1ccc(O)cc1)CC(=O)/C=C/c1ccc(O)cc1 [Bisdemethoxycurcumin, bisdemethoxycurcumin]
Plasma concentrations ([1]; human, in vivo): 1.0 to 18.6 ng/mL
Plasma level in individual participants ([1]; human, in vivo): 2.1 ng/mL
Concentration range ([1]; human, in vivo, 0 h): 0.7 to 2.7 ng/mL
Mean concentration ([1]; human, in vivo, 0 h): 1.6 ng/mL
Concentration range ([1]; human, in vivo, 1.5 h): 0.7 to 60.4 ng/mL
Mean concentration ([1]; human, in vivo, 1.5 h): 6.1 ng/mL
concentration at 0 h [1, 8]: 2.1 ng/mL
concentration at 1.5 h [1, 7]: < 0.62 ng/mL

Compound: COc1cc(CCC(=O)CC(=O)CCc2ccc(O)c(OC)c2)ccc1O [Tetrahydrocurcumin, tetrahydrocurcumin]
Plasma concentrations ([1]; human, in vivo): 1.0 to 18.6 ng/mL
Plasma level in individual participants ([1]; human, in vivo): < 0.74 ng/mL
Concentration range ([1]; human, in vivo, 0 h): 0.8 to 81.2 ng/mL
Mean concentration ([1]; human, in vivo, 0 h): 14.6 ng/mL
Mean concentration ([1]; human, in vivo, 1.5 h): 21.6 ng/mL
Plasma level in individual participants ([1]; human, in vivo, 1.5 h): 20.9 ng/mL
concentration at 1.5 h [1, 8]: 18.6 ng/mL
concentration at 1.5 h [1, 7]: 16.4 ng/mL

Compound: curcumin
Decrease of chemical t1/2 [2]: 50%
Tumor growth [3]: reduced the tumor growth
Increase of bioavailability of curcumin [4]: 154%
Fold below a plasma concentration expected to have a beneficial health effect ([1]; curcumin plasma level after adding β-glucuronidase (25.4 ng/mL)): 1000 fold
Cmax ([1]; one of three participants using curcumin lipid formulations, dosage 800 mg): 355 nM
Fold lower than the concentrations assessed in vitro ([1]; unconjugated free curcumin in plasma): > 1000 fold
Detectable levels in # persons [1, 9]: 27
Mean concentration [1, 9]: 14.3 ng/mL
Detectable levels in # persons [1, 10]: 42
Mean concentration [1, 10]: 25.4 ng/mL
Participants in whom curcumin after hydrolysis could not be detected (below LLOQ) ([1]; with β-glucuronidase, 1.5 h after dosing): 5
Detectable levels in # persons [1, 11]: 1
Mean concentration [1, 11]: 10.1 ng/mL
Mean concentration ([1]; without addition of β-glucuronidase, 1.5 h (expected peak), human plasma): 1.0 ng/mL
Detectable levels in # persons ([1]; without addition of β-glucuronidase, 1.5 h after intake (expected peak), human plasma): 2
Plasma level in individual participants ([1]; without β-glucuronidase, expected peak level, 1.5 h after intake): 0.9 ng/mL and 1.1 ng/mL
Plasma level in individual participants ([1]; without β-glucuronidase, trough level): 10.1 ng/mL
Levels of curcumin in the systemic circulation [5]: no detectable levels
Curcumin concentrations ([6]; oral lipid formulations, β-glucuronidase added prior to analysis): up to 1189.1 ± 518.8 ng/mL
Claimed plasma concentration relative to the concentration of unconjugated curcumin ([6]; β-glucuronidase added to plasma prior to analysis): up to 185 x

Now from value to compound, other results behind:

Plasma concentrations ([1]; human, in vivo): 1.0 to 18.6 ng/mL
Plasma level in individual participants ([1]; human, in vivo): < 0.68 ng/mL
Concentration range ([1]; human, in vivo, 0 h): 1.4 to 8.6 ng/mL
Mean concentration ([1]; human, in vivo, 0 h): 3.5 ng/mL
Concentration range ([1]; human, in vivo, 1.5 h): 0.9 to 73.1 ng/mL
Mean concentration ([1]; human, in vivo, 1.5 h): 9.4 ng/mL
concentration at 1.5 h [1, 7]: < 0.68 ng/mL
Compound: COc1cc(/C=C/C(O)=C/C(=O)/C=C/c2ccc(O)cc2)ccc1O [Demethoxycurcumin, demethoxycurcumin]

Fold lower than piperine plasma concentrations in literature that affect curcumin bioavailability ([1]; human, in vivo): 10-60 fold
Trough and peak level concentrations ([1]; human, in vivo): 1.0 to 1096 ng/mL
Detectability in plasma ([1]; in vivo): detectable in all participants
Compound: O=C(/C=C/C=C/c1ccc2c(c1)OCO2)N1CCCCC1 [Piperine, piperine]
IC50 (CYP3A): 5.5 ± 0.7 µM
